Measured values as given in patent EP0501870A1, “New pharmaceutical compositions, particularly for the treatment of functional infections of the large intestines, and process for obtaining them” (SOCIETE CIVILE BIOPROJET, priority 1991, dated 1992).
Each block holds one compound with its values, some of them ahead of it.

Legend:
[1] = Multicentre clinical study in functional colopathy patients; format: in vivo
Excerpt: Une étude multicentrique chez 420 colopathes fonctionnels a été entreprise avec l'acétorphan [R,S], produit pour lequel les études de toxicité chronique chez l'animal rongeur (rat) et non rongeur (singe) autorisaient des études de longue durée (supérieure à 1 mois). […]
Le critère principal d'efficacité retenu était la douleur évaluée selon une échelle analogique. Les autres paramètres pris en considération étaient les troubles du transit, qu'il s'agisse de constipation (54,4 % des cas) ou de diarrhée (39 % des cas).

A.C.E. = A.C.E. (Homo sapiens, UniProt P12821); conditions: cited from earlier work
motricité colique = assay: Post-prandial colonic motor activity recorded by strain gauges; format: in vivo, chien; conditions: dog, mean and sd of 8 values
Excerpt: Chez le chien, en période post-prandiale, le mélange des deux isomères [R] 65 % [S]

enképhalinase [2] = biological target: enképhalinase (Homo sapiens, UniProt P08473); conditions: compared with isomère [S], cited from earlier work
enképhalinase [3] = conditions: type of constant (IC50/Ki) not given; read-out: activité inhibitrice de l'enképhalinase; cited from earlier work
[4] = biological target: T1, enképhalinase plasmatique (Homo sapiens, UniProt P08473); assay: Plasma enkephalinase activity over time after a single oral dose; format: in vivo, volontaire sain; conditions: healthy volunteer; for Activité enképhalinase plasmatique T3O' / Activité enképhalinase plasmatique T1h / Activité enképhalinase plasmatique T8h / Activité enképhalinase plasmatique TO: 30 mg oral single dose; for Activité enképhalinase plasmatique T3O': 30 min; for Activité enképhalinase plasmatique T3O' / Activité enképhalinase plasmatique T1h / Activité enképhalinase plasmatique T8h: * p < 0.05 vs TO; for Activité enképhalinase plasmatique T1h: 1 h; for Activité enképhalinase plasmatique T8h: 8 h; for Activité enképhalinase plasmatique TO: time zero (baseline)
T1 construct: from tissue; host or cells: plasma of healthy volunteers
Method: Chez le volontaire sain, l'activité enzymatique plasmatique a été évaluée en fonction du temps pour suivre l'absorption et la durée de vie des inhibiteurs étudiés, après administration orale d'un dose unique de 30 mg.
Comparaison des inhibitions enképhalinasiques plasmatiques après administration des différents composés à la dose de 30 mg par voie orale.

[5] = clinical trials in man; cited from earlier work
[6] = plasma enkephalinase inhibition, 30 mg oral

T1 sequence (P08473 whole entry): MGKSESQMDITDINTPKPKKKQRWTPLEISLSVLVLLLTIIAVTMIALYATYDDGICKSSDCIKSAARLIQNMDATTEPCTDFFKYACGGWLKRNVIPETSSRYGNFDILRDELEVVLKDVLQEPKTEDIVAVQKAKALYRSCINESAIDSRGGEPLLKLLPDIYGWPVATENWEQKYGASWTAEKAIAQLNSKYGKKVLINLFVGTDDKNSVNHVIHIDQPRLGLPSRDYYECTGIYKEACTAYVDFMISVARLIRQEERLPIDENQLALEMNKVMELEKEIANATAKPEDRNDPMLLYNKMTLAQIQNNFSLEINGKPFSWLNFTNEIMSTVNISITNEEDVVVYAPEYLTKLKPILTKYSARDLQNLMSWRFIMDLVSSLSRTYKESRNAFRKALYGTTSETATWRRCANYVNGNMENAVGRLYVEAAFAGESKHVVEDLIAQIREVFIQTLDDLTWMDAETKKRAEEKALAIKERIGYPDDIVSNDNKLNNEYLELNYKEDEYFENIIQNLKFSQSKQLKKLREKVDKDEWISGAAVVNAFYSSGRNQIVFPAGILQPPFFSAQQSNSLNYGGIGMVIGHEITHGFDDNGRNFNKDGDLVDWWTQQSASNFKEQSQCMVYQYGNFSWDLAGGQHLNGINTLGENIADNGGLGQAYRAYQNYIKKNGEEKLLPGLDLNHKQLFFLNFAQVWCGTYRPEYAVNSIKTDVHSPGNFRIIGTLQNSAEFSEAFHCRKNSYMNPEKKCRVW
Chain of enképhalinase (Homo sapiens, UniProt P08473) (P08473 whole entry, species assumed): as the sequence (P08473 whole entry) above
Chain of enképhalinase (P08473 whole entry, species assumed): as the sequence (P08473 whole entry) above
Chain of A.C.E. (P12821 30-1306, species assumed): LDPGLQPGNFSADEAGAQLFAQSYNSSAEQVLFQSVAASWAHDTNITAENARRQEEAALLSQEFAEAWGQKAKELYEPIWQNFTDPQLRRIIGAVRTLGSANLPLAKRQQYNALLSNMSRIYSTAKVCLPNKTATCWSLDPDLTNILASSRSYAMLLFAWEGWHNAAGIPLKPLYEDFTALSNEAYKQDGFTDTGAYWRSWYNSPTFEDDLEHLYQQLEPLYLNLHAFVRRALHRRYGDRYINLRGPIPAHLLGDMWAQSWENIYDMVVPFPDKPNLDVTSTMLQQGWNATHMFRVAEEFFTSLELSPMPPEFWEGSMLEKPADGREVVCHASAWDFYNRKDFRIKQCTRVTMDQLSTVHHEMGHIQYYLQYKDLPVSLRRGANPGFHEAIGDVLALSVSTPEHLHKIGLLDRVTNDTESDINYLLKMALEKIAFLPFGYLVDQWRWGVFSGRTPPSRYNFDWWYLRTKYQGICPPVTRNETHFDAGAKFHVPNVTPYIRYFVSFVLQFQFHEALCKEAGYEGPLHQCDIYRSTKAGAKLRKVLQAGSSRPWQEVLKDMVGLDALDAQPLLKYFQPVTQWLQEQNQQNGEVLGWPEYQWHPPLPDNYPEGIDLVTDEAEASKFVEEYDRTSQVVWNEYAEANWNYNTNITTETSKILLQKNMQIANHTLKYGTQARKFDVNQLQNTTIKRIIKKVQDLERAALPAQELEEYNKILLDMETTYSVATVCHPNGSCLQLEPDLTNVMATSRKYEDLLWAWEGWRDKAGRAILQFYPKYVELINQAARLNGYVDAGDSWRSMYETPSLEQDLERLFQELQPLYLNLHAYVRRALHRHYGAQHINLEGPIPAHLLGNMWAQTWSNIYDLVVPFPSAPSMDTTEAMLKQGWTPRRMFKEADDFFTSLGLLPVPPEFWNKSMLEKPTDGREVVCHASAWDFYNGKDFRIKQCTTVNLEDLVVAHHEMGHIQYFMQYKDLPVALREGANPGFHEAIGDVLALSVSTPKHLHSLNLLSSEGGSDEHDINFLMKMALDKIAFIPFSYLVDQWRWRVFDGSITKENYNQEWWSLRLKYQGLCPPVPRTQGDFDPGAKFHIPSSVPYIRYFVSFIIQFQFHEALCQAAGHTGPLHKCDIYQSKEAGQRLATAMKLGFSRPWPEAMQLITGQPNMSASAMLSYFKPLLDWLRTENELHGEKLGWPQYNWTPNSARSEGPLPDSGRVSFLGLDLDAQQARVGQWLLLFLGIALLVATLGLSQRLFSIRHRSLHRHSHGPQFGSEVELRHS

SMILES: CC(=O)SCC(Cc1ccccc1)C(=O)NCC(=O)OCc1ccccc1 (racemic) [acétorphan]
% d'amélioration après acétorphan 100 mg X 3, Ballonnement ([1]; 1 mois (420 sujets)): 60% | % d'amélioration après acétorphan 100 mg X 3, Douleur ([1]; 1 mois (420 sujets)): 70% | % d'amélioration après acétorphan 100 mg X 3, Troubles du transit ([1]; 1 mois (420 sujets)): 50% | % d'amélioration après acétorphan 100 mg X 3, Ballonnement ([1]; 2 mois (115 sujets)): 80% | % d'amélioration après acétorphan 100 mg X 3, Douleur ([1]; 2 mois (115 sujets)): 84,3% | % d'amélioration après acétorphan 100 mg X 3, Troubles du transit ([1]; 2 mois (115 sujets)): 81,5% | % d'amélioration après acétorphan 100 mg X 3, Ballonnement ([1]; 3 mois (40 sujets)): 90% | % d'amélioration après acétorphan 100 mg X 3, Douleur ([1]; 3 mois (40 sujets)): 87,5% | % d'amélioration après acétorphan 100 mg X 3, Troubles du transit ([1]; 3 mois (40 sujets)): 94% | sujets constipés au stade 3 ([1]; after one month of treatment): 0,9% | sujets diarrhéiques présentant une diarrhée objective et importante (d'intensité 2 et 3) ([1]; after one month of treatment, 20 % before treatment): 2,4% | sujets constipés souffrant de constipation importante (stades 2 et 3) ([1]; after one month of treatment, 32 % before treatment): 12,7%

Activité enképhalinase plasmatique T3O' [4]: 40,0 pmol/ml/min | Activité enképhalinase plasmatique T1h [4]: 32,4* pmol/ml/min | Activité enképhalinase plasmatique T8h [4]: 46,1 pmol/ml/min | Activité enképhalinase plasmatique TO [4]: 52,3 pmol/ml/min | effet maximum [Cmax] [4, 6]: plus faible
SMILES: CC(=O)SC[C@H](Cc1ccccc1)C(=O)NCC(=O)OCc1ccccc1 [[R], [R] acétorphan]
activité inhibitrice de l'A.C.E. (A.C.E.): dénué d'effet sur l'A.C.E. | Index moteur (évalué par jauge de contrainte) Avant repas (-2-0 h) (motricité colique; 10 mg/kg per os): 5.7 ± 0.8 | Index moteur (évalué par jauge de contrainte) Après repas (2 - 10 h) (motricité colique; 10 mg/kg per os, * p < 0.01 vs control): 15.2 ± 2.4 | durée d'action vis-à-vis de l'enképhalinase (enképhalinase [2]): environ trois fois moins longue que celle de l'isomère [S] | effet maximal (enképhalinase [2]; enkephalinase inhibition): moins intense | IC50 (enképhalinase [3]): 1.7 nM | durée d'action [4, 6]: plus courte que le dérivé [S] et le mélange [R] + [S]

Activité enképhalinase plasmatique T3O' [4]: 28,4* pmol/ml/min | Activité enképhalinase plasmatique T1h [4]: 21,7* pmol/ml/min | Activité enképhalinase plasmatique T8h [4]: 37* pmol/ml/min | Activité enképhalinase plasmatique TO [4]: 53,3 pmol/ml/min
SMILES: CC(=O)SC[C@@H](Cc1ccccc1)C(=O)NCC(=O)OCc1ccccc1 [[S], [S] acétorphan]
effet antihypertenseur [5]: effet antihypertenseur, démontré chez l'homme | activité inhibitrice de l'A.C.E. (A.C.E.): résidant essentiellement dans l'isomère [S] | Index moteur (évalué par jauge de contrainte) Avant repas (-2-0 h) (motricité colique; 5 mg/kg per os): 6.3 ± 1 | IC50 (enképhalinase [3]): 2.2 nM
